One assay deals with T1, AmPNP (Aneurinibacillus migulanus, UniProt A0A3G5E8S8).
T1 construct: full-length ORF 813 bp, 270 residues; N-terminal 6*His tag (pET-28a(+), Nhe I/BamH I), E. coli BL21(DE3), Ni2+ purified; subunit ~29 kDa, native ~87 kDa, trimer
The assay is described as follows: phosphorolysis, HPLC. It is filed as biochemical. The settings on record: 10 mM sodium phosphate buffer pH 8.0 (phosphate co-substrate), 50 °C, 0.5–5 mM substrate. The source says: phosphorolysis, HPLC on AmPNP

In assay [1] the target is purine nucleoside phosphorylase from Aneurinibacillus migulanus AM007 (Aneurinibacillus migulanus AM007). The assay is described as follows: SEC; Superdex 200 Increase 10/300 GL on an AKTA pure system, against standard proteins; 0.01 M phosphate buffer, 0.14 M NaCl, pH 8.0; AmPNP at 2 mg/mL; 0.3 mL/min; native mass about 87 kDa compared with about 29 kDa subunit on SDS-PAGE. In general terms: In gel filtration, larger molecules generally elute earlier.

As for `Nc1ncnc2c1ncn2[C@@H]1O[C@H](CO)[C@@H](O)[C@H]1O` [Adenosine], the Km on AmPNP came out at 1450 µM.
Still for that read-out and setting: under `Nc1nc2c(ncn2[C@@H]2O[C@H](CO)[C@@H](O)[C@H]2O)c(=O)[nH]1` [Guanosine] stands 1160 µM.
The same measure, in the same setting: the figure for `OC[C@H]1O[C@@H](n2cnc3c(O)ncnc32)[C@H](O)[C@@H]1O` [Inosine] is 5300 µM.
Regarding “purine nucleoside phosphorylase from Aneurinibacillus migulanus AM007 (enzyme)”, in assay [1], the stoichiometry N is 3.

In general, Km refers to the concentration of substrate that gives half-maximal velocity. What is called stoichiometry N is a count of units in the complex or per binding partner.
